Results: patent publication US20140030311A1, “MONOLITHIC INTRAVAGINAL RINGS COMPRISING PROGESTERONE AND METHODS OF MAKING AND USES THEREOF” (TEVA WOMEN'S HEALTH, INC., priority 2009, published 2014)

What was measured:
endometrium = assay: Post-study mock cycle and donor egg IVF of the two ring non-responders on other progesterone; format: in vivo, human; conditions: for outcome of post-study donor egg IVF: single subject; for biopsy result in post-study mock cycle: single subject without transformation on the ring
From the text: There was a fibroid found in surgery post-study, which could have affected blood supply to the endometrium. […] The subject is considering one more IVF attempt with a donor egg.

IVF cycles = conditions: luteal phase support in IVF cycles; Soliman et al. 1994; cited from earlier work

## CC(=O)[C@H]1CC[C@H]2[C@@H]3CCC4=CC(=O)CC[C@]4(C)[C@H]3CC[C@]12C [micronized progesterone, pregn-4-ene-3,20-dione]
endometrium
  outcome of post-study donor egg IVF: negative βhCG
  biopsy result in post-study mock cycle: adequate transformation

## CC(=O)[C@H]1CC[C@H]2[C@@H]3CCC4=CC(=O)CC[C@]4(C)[C@H]3CC[C@]12C [progesterone, pregn-4-ene-3,20-dione]
IVF cycles
  pregnancy rates versus placebo: significantly higher pregnancy rates than placebo

## CC(=O)[C@H]1CC[C@H]2[C@@H]3CCC4=CC(=O)CC[C@]4(C)[C@H]3CC[C@]12C [IM progesterone, pregn-4-ene-3,20-dione]
endometrium
  outcome of post-study donor egg IVF: ongoing pregnancy with delivery
  biopsy result in post-study mock cycle: adequate transformation
